What all share (assay): Cysteine liganding, probe competition
What all share (type): binding

One test deals with T1, UniProt O15151 (Homo sapiens, UniProt O15151).
T1 construct: Cells were resuspended in cold PBS on ice and sonicated with a probe sonicator to achieve lysis; endogenous in cells
T1 sequence (O15151 1-490): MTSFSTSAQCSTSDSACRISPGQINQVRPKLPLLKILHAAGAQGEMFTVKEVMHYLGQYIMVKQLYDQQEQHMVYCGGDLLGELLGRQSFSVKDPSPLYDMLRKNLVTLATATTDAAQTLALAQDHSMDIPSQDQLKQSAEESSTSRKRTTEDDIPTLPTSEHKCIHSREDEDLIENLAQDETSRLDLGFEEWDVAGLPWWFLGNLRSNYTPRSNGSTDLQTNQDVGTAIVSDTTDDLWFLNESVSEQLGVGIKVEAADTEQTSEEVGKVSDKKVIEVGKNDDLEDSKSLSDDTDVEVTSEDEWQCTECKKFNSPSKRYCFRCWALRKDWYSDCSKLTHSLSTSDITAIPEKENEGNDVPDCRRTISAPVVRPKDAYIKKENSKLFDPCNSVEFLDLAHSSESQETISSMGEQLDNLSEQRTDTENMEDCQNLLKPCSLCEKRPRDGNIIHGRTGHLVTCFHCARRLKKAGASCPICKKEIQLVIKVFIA
The following applies: for inhibition at 500 µM: read-out: percent inhibition. The text has this: (§1) The following 96-well sample prep protocol was used for sample preparation.

The next test addresses T2, UniProt Q6ZMU5 (Homo sapiens, UniProt Q6ZMU5).
T2 construct: 200 μL of lysate containing 5 mg/ml proteome was treated with 2 μL of 100× compound stock; endogenous in cells
T2 sequence (Q6ZMU5 1-477): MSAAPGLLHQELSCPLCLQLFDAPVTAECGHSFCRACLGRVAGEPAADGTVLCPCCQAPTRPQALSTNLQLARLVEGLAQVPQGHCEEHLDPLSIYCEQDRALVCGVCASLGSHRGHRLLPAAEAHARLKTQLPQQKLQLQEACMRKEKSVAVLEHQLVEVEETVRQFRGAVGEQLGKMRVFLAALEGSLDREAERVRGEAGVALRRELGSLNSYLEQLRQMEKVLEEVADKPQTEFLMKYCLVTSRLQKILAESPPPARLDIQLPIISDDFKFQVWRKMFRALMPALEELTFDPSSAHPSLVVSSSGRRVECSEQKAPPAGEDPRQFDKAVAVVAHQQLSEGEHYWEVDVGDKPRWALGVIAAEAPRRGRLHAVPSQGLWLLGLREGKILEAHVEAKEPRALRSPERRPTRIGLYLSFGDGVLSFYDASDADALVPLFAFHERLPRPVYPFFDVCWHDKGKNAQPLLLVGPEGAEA
Excerpt: as §1

The target in a further test is T3, UniProt Q96BF6 (Homo sapiens, UniProt Q96BF6).
T3 construct: Cells were resuspended in cold PBS on ice and sonicated with a probe sonicator to achieve lysis; endogenous in cells
T3 sequence (Q96BF6 1-587): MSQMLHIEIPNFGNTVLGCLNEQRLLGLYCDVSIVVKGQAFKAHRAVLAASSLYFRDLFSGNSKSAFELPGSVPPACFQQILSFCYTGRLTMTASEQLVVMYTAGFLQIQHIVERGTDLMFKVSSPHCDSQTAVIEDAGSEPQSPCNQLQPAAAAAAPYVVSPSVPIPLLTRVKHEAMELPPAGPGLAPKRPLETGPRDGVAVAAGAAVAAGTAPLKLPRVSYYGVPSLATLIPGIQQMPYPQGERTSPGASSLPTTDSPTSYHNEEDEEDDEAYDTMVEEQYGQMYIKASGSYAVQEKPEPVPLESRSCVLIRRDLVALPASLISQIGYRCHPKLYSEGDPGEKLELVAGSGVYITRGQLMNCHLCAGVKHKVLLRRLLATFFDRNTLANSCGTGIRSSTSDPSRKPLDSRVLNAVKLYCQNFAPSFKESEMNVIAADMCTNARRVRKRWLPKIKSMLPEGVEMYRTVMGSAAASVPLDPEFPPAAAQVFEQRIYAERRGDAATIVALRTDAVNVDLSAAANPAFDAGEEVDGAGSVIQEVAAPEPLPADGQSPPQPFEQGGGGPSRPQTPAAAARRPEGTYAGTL
The following applies: for inhibition at 100 µM / inhibition at 500 µM: read-out: percent inhibition.
Excerpt: as §1

The target in another test is T4, UniProt Q6IQ16 (Homo sapiens, UniProt Q6IQ16).
T4 construct: 200 μL of lysate containing 5 mg/ml proteome was treated with 2 μL of 100× compound stock; endogenous in cells
T4 sequence (Q6IQ16 1-392): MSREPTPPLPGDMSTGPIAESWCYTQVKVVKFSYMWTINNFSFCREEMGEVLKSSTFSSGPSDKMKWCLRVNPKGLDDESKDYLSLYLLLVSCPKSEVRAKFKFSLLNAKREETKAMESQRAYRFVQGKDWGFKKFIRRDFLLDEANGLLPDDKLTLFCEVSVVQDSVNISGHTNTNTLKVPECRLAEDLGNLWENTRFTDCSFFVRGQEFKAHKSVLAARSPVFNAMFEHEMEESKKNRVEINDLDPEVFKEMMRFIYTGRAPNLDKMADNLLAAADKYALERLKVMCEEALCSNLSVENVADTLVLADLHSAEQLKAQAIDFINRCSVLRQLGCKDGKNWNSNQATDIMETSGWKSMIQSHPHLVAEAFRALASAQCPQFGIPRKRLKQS
Excerpt: as §1

The target in a further test is T5, UniProt O60683 (Homo sapiens, UniProt O60683).
T5 construct: 200 μL of lysate containing 5 mg/ml proteome was treated with 2 μL of 100× compound stock; endogenous in cells
T5 sequence (O60683 whole entry, change not shown): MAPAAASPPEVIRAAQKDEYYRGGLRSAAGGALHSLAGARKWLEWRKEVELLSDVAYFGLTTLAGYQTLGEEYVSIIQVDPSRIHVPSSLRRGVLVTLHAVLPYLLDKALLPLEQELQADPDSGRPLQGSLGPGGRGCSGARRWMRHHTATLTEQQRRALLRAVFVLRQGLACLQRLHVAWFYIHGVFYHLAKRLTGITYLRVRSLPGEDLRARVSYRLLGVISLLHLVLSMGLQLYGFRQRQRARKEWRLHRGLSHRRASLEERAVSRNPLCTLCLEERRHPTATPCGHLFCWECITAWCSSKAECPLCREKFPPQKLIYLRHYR
Excerpt: as §1

In the next test the target is T6, UniProt O43164 (Homo sapiens, UniProt O43164).
T6 construct: 200 μL of lysate containing 5 mg/ml proteome was treated with 2 μL of 100× compound stock; endogenous in cells
T6 sequence (O43164 whole entry, change not shown): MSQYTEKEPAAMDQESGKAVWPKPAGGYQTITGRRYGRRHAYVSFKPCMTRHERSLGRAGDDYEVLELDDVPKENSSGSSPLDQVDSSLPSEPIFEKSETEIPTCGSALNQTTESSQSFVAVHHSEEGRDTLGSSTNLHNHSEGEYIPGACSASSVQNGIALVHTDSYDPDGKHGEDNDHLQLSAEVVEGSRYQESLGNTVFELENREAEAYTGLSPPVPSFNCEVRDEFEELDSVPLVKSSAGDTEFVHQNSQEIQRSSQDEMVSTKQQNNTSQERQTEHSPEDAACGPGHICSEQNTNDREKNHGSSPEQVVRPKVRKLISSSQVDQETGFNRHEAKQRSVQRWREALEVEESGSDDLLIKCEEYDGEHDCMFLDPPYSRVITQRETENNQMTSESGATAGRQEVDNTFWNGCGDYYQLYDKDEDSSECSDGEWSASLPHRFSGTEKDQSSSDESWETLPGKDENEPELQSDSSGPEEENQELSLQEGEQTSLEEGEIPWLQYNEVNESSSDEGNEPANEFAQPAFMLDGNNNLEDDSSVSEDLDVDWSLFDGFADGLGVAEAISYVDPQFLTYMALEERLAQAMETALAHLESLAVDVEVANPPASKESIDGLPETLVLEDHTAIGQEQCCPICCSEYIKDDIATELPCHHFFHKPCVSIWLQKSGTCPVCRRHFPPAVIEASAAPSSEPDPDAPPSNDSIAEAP
Excerpt: as §1

The target in another test is T7, UniProt Q9HCE7 (Homo sapiens, UniProt Q9HCE7).
T7 construct: 200 μL of lysate containing 5 mg/ml proteome was treated with 2 μL of 100× compound stock; endogenous in cells
T7 sequence (Q9HCE7 whole entry, change not shown): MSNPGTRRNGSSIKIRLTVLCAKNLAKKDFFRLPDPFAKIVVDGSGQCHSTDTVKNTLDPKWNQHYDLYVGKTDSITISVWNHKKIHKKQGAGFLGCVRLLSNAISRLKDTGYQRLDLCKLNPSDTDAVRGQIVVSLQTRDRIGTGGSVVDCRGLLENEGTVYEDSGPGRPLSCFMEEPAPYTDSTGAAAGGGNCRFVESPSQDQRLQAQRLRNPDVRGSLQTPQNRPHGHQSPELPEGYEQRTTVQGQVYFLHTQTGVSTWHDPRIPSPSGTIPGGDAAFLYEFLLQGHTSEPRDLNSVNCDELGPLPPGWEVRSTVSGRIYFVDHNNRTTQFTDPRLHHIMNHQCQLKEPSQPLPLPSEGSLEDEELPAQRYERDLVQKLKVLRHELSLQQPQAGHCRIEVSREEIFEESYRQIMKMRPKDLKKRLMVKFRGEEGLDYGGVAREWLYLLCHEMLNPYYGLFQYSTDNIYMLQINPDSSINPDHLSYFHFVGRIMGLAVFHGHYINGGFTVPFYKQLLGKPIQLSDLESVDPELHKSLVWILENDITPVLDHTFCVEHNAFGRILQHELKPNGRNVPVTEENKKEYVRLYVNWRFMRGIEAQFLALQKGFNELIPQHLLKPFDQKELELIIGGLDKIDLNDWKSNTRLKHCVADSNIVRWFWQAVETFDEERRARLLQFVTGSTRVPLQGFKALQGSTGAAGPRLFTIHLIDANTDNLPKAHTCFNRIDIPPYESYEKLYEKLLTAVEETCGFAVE
Excerpt: as §1

[1] abbreviates: read-out: KB02_100 uM_percent_inhibition.
[2] abbreviates: read-out: KB05_100 uM_percent_inhibition.

SMILES strings stand for the structures. Where two headings read alike, the source gives them in different places.

`COc1ccc2c(c1)CCCN2C(=O)CCl` [KB02]: the inhibition at 500 µM on UniProt O15151 was 29%; at UniProt Q96BF6 (500 uM), 46%. The inhibition at 100 µM at UniProt Q6ZMU5 (setting [1]) was determined as 36%; on UniProt Q96BF6 (100 uM) it was 38%; on UniProt Q6IQ16 (read-out: percent_inhibition), 16%; at UniProt O60683 (setting [1]), 51%. Moreover, the percent inhibition at UniProt Q96BF6 (100 uM) and at UniProt Q96BF6 (500 uM) was 32% throughout.

With `C=CC(=O)N(c1ccccc1)c1ccc(Br)cc1` [KB05], the values for the percent inhibition on UniProt O15151 (500 uM) and at UniProt Q96BF6 (500 uM) were 41% and 56%, respectively. The inhibition at 500 µM on UniProt O15151 stood at 55%; on UniProt Q96BF6 (500 uM), 47%; at UniProt Q6IQ16 (500 uM, read-out: percent_inhibition), 44%. Besides, the “KB05_100 uM_percent_inhibition” value on UniProt Q6ZMU5 (100 uM) came out at 8%. Moreover, the inhibition at 100 µM came out at 6% at UniProt Q6ZMU5 (setting [2]); 25% at UniProt Q96BF6 (100 uM); 1% on UniProt O43164 (setting [2]); 20% on UniProt Q6IQ16 (read-out: percent_inhibition); 52% on UniProt Q9HCE7 (read-out: percent_inhibition); 37% at UniProt O60683 (setting [2]). At UniProt Q6IQ16 (500 uM), the percent_inhibition is listed as 57%.

Consider `O=C(CCl)Nc1cc(C(F)(F)F)cc(C(F)(F)F)c1` [KBO3], for which, at UniProt O43164 (100 uM), the “KB03_100 uM_percent_inhibition” value was determined as 22%. The same compound showed a percent_inhibition at UniProt Q9HCE7 (100 uM) of 71%.
